In brackets after ≈: the same amount, converted by molar mass. Several values for one entry are separate records, joined by “and”; a condition that tells them apart may be missing. Identical values can stand only once. Like-named read-outs stand apart in the source and are kept apart here.
Assays:
[1] = tested on: S. saprophyticus; test: MIC and MBC, broth microdilution; format: cell-based, Staphylococcus saprophyticus; settings: Staphylococcus saprophyticus, geometric mean, S. saprophyticus (n = 3); for MBC: read-out: MBC; for MIC: read-out: MIC
Description: (§1) Seven clinical isolates of Staphylococcus spp. including 2 S. aureus, 3 S. saprophyticus, and 2 S. epidermidis were used. They were isolated from urine samples in our previous study. Two reference strains (S. aureus ATCC1026 and S. epidermidis ATCC35984) obtained from the American Type Culture Collection were also included. They were kept in the mixture of glycerol and Mueller Hinton Broth (MHB) (1:1) at −20°C, and the activation was achieved using the streak technique on Mueller Hinton agar (MHA) medium.
(§2) The MICs of ATBs and NPs were determined by the broth microdilution method as previously described. NPs and ATBs were, respectively, prepared at 4096 µg/mL and 512 µg/mL and serially diluted twofold with MHB in a 96-well microplate at a volume of 100 µL. Then, the wells were filled with 100 µL of inoculum (1.5 × 10^6 CFU/mL) to give final concentrations ranging from 1024 µg/mL to 0.5 µg/mL and 128 µg/mL to 0.062 µg/mL of NPs and ATBs, respectively. The microplates were incubated for 24 h at 37°C. Wells containing only bacterial inoculum were used as the negative control. After incubation, a volume of 40 µL of INT solution (0.2 mg/mL) was added to each well, and the microplate was incubated at 37°C for 30 min. Viable bacteria cells change the yellow dye of INT to a pink color. The MIC was considered as the lowest concentration of the sample at which there was no change in the coloration of the medium, corresponding to the complete inhibition of microbial growth.
(§3) All tests were performed in triplicate.

[2] = tested on: S. epidermidis; test: MIC and MBC, broth microdilution; format: cell-based, Staphylococcus epidermidis; settings: Staphylococcus epidermidis, geometric mean, S. epidermidis (n = 3); for MBC: read-out: MBC; for MIC: read-out: MIC
Description: as §1, §2, §3

[3] = tested on: S. aureus biofilm; test: Biofilm inhibition assay (MBIC, MTT); format: cell-based, Staphylococcus aureus; settings: Staphylococcus aureus, 24 h; geometric mean, S. aureus (n = 3)
Description: (§4) The biofilm formation inhibitory activity of NPs and ATBs was carried out according to the method previously described. A total of 100 µL of bacterial inoculum (1.5 × 10^6 CFU/mL) was used, and 100 µL of each sample was added to the microplate to achieve final concentrations ranging from 0.25 µg/mL to 128 µg/mL for ATBs and from 8 µg/mL to 1024 µg/mL for NPs. Then, the microplate was incubated at 37°C for 24 h. After incubation, the plates were gently emptied and washed three times with a phosphate buffer solution at pH 7.2. Then, the MTT solution (0.5 mg/mL) prepared in PBS was introduced into each well, and the microplate was further incubated at 37°C for 24 h. Untreated wells containing bacterial suspension and MHB supplemented with 1% glucose were considered positive controls, and wells containing only MHB+1% glucose without bacteria were used as blanks. After incubation, the MTT solution was aspirated, then 150 µL of DMSO was introduced to dissolve the formazan crystal formed by viable bacteria, and the optical density (OD) was measured at 570 nm using a microplate reader (VERSA-max). The percentage of biofilm inhibition was calculated using the formula below, and the minimal biofilm inhibitory concentration (MBIC) was recorded as the lowest concentration of NPs or ATBs that inhibited 100% of biofilm:(1) % biofilm inhibition=ODcontrol−ODblank−ODtest−ODblank/ODcontrol−ODblank×100.

[4] = tested on: S. saprophyticus biofilm; test: Biofilm inhibition assay (MBIC, MTT); format: cell-based, Staphylococcus saprophyticus; settings: Staphylococcus saprophyticus, 24 h; geometric mean, S. saprophyticus (n = 3)
Description: as §4

[5] = tested on: S. epidermidis biofilm; test: Biofilm inhibition assay (MBIC, MTT); format: cell-based, Staphylococcus epidermidis; settings: Staphylococcus epidermidis, 24 h; geometric mean, S. epidermidis (n = 3)
Description: as §4

[6] = tested on: S. aureus biofilm; test: Biofilm eradication assay (MBEC, MTT); format: cell-based, Staphylococcus aureus; settings: Staphylococcus aureus, 24 h; geometric mean, S. aureus (n = 3)
Description: (§5) The determination of the biofilm eradication potential of NPs and ATBs was performed as previously described. Briefly, 100 µL of bacterial inoculum (1.5 × 10^6 CFU/mL) and 100 µL of MHB + 1% glucose were introduced into the microplate, incubated at 37°C for 24 h, and the microplate was gently emptied and washed three times with PBS. Then, 200 µL of ATBs or NPs at respective concentrations ranging from 8 to 1024 µg/mL and from 16 to 2048 µg/mL were incubated at 37°C for 24 h. Once incubation was completed, the microplate was processed as described above, and the percentage of biofilm eradication was calculated using the formula below. The minimal biofilm eradicating concentration (MBEC) was recorded as the lowest concentration of the test sample that reduces 100% of biofilm:(2) % biofilm eradication=ODcontrol−ODblank−ODtest−ODblank/ODcontrol−ODblank×100.

[7] = tested on: S. saprophyticus biofilm; test: Biofilm eradication assay (MBEC, MTT); format: cell-based, Staphylococcus saprophyticus; settings: Staphylococcus saprophyticus, 24 h; geometric mean, S. saprophyticus (n = 3)
Description: as §5

[8] = tested on: S. epidermidis biofilm; test: Biofilm eradication assay (MBEC, MTT); format: cell-based, Staphylococcus epidermidis; settings: Staphylococcus epidermidis, 24 h; geometric mean, S. epidermidis (n = 3)
Description: as §5

[9] = tested on: Staphylococcus aureus biofilm; test: Checkerboard combination assay, biofilm inhibition; format: cell-based
Description: (§6) The effect of the combination of ATBs with NPs on biofilm formation was evaluated by determining the FICI, as described above for planktonic cells, except that the MHB was supplemented with 1% glucose.
(§7) The lowest MBICs of ATBs or NPs that inhibited metabolic activity in the biofilm were determined as described above. The FICI was used to perform the effect of combination and calculated as follows: FICI: (MBIC of ATBs in combinations/MBIC of ATBs alone) + (MBIC of NP in the combinations/MBIC of NP alone). FICI was interpreted as indicated above.

[10] = tested on: Staphylococcus epidermidis biofilm; test: Checkerboard combination assay, biofilm inhibition; format: cell-based
Description: as §6, §7

[11] = tested on: Staphylococcus saprophyticus biofilm; test: Checkerboard combination assay, biofilm inhibition; format: cell-based
Description: as §6, §7

[12] = tested on: Staphylococcus epidermidis biofilm; test: Checkerboard combination assay, biofilm eradication; format: cell-based
Description: The effect of the combination of ATBs with NPs on the preformed biofilm was evaluated by determining the FICI, as described above for biofilm formation, with slight modifications. After biofilm formation for 24 h, the plate was gently emptied and washed three times with PBS. Then, 50 µL of ATBs and 50 µL of NPs were introduced to the plate. The final concentration ranges from 0.0625 to 128 µg/mL and from 4 to 512 µg/mL for ATBs and NPs, respectively, and is incubated at 37°C for 24 h. After incubation, the medium was gently removed, and the plate was washed three times with PBS. At the end of the incubation time, the MTT reduction assay was performed, and the MBEC was determined. To assess the effect of the combination, the FICI was calculated and interpreted as described above.

[13] = antibiotic alone, S. aureus biofilm inhibition
[14] = antibiotic alone, S. epidermidis biofilm inhibition
[15] = antibiotic alone, S. saprophyticus biofilm inhibition
[16] = S. epidermidis biofilm eradication, antibiotic alone, mean MBEC
[17] = S. aureus, biofilm inhibition, mean
[18] = natural product alone, S. aureus biofilm inhibition
[19] = S. epidermidis, biofilm inhibition, mean
[20] = natural product alone, S. epidermidis biofilm inhibition
[21] = S. saprophyticus, biofilm inhibition, mean
[22] = natural product alone, S. saprophyticus biofilm inhibition

Structure (SMILES) | MBC ([1]; antibiotics) [µg/mL] | MIC [1] [µg/mL] | MBC ([2]; antibiotics) [µg/mL] | MIC [2] [µg/mL] | minimal effective concentration [3] [µg/mL] | minimal effective concentration [4] [µg/mL] | minimal effective concentration [5] [µg/mL] | minimal effective concentration [6] [µg/mL] | minimal effective concentration [7] [µg/mL] | minimal effective concentration [8] [µg/mL] | MBIC alone, ATB [9, 13] [µg/mL] | MBIC alone, ATB [10, 14] [µg/mL] | MBIC alone, ATB [11, 15] [µg/mL] | MBEC Alone ATB [12, 16] [µg/mL] | MBC ([1]; natural products) [µg/mL] | MBC ([2]; natural products) [µg/mL] | MBIC alone, NPs [10, 20] [µg/mL] | MBIC alone, NPs [11, 22] [µg/mL] | further results
C=CC1=C(C(=O)O)N2C(=O)[C@@H](NC(=O)/C(=N\OCC(=O)O)c3csc(N)n3)[C@H]2SC1 [Cefixime, cefixime] | > 128 | 192 (≈ 423 µM) | > 128 | 107 (≈ 235 µM) | 64 | 48 | 64 | 42.7 | 48 | 42.7 | 64 | 64 | 48 | 42.66 | – | – | – | – | –
Cc1ccc(C(C)C)c(O)c1 [Thymol, thymol] | – | 341 (≈ 2270 µM) | – | 341 (≈ 2270 µM) | 341 | 128 | 213 | 107 | 107 | 107 | – | – | – | – | > 1020 | > 1020 | 213.33 | 128 | MBIC alone, NPs [9, 17]: 341.33 µg/mL; MBIC alone, NPs [9, 18]: 341.33 µg/mL; MBIC alone, NPs [10, 19]: 213.33 µg/mL; MBIC alone, NPs [11, 21]: 128 µg/mL; MBEC Alone NPs ([12]; S. epidermidis biofilm eradication, natural product alone, mean MBEC, listed as Thy): 128 µg/mL and 106.66 µg/mL
O=C(O)c1cc(O)c(O)c(O)c1 [Gallic acid, 3,4,5-trihydroxybenzoic acid] | – | 427 (≈ 2510 µM) | – | 427 (≈ 2510 µM) | 512 | 427 | 512 | 299 | 299 | 267 | – | – | – | – | > 1020 | > 1020 | 512 | 426.66 | MBIC alone, NPs [9, 18]: 512 µg/mL; MBEC Alone NPs ([12]; S. epidermidis biofilm eradication, natural product alone, mean MBEC, listed as Gal): 266.66 µg/mL and 298.66 µg/mL and 426.66 µg/mL
CC1=CC(=O)c2c(O)cccc2C1=O [Plumbagin, plumbagin] | – | 8.66 (≈ 46 µM) | – | 90.7 (≈ 482 µM) | 10.7 | 6.66 | 8 | 32 | 10.7 | 10.7 | – | – | – | – | > 1020 | > 1020 | 8 | 6.66 | MBIC alone, NPs [9, 17]: 10.66 µg/mL; MBIC alone, NPs ([9]; natural product alone, S. aureus biofilm inhibition, listed as Pb): 10.66 µg/mL; MBIC alone, NPs [10, 19]: 8 µg/mL; MBIC alone, NPs [11, 21]: 16 µg/mL; MBEC Alone NPs ([12]; S. epidermidis, biofilm eradication, mean, listed as Plu): 13.33 µg/mL and 16 µg/mL
NCC[C@H](O)C(=O)N[C@@H]1C[C@H](N)[C@@H](O[C@H]2O[C@H](CN)[C@@H](O)[C@H](O)[C@H]2O)[C@H](O)[C@H]1O[C@H]1O[C@H](CO)[C@@H](O)[C@H](N)[C@H]1O [Amikacin, amikacin] | > 128 | 22 (≈ 37.6 µM) | > 128 | 1.16 (≈ 1.98 µM) | 1.83 | 2.08 | 3.08 | 13.3 | 13.3 | 21.3 | 1.83 | 3.08 | 2.08 | 21.33 | – | – | – | – | MBIC alone, ATB [9, 17]: 1.83 µg/mL; MBIC alone, ATB [10, 19]: 3.08 µg/mL; MBIC alone, ATB [11, 21]: 2.08 µg/mL
CC[C@H]1OC(=O)[C@H](C)[C@@H](O[C@H]2C[C@@](C)(OC)[C@@H](O)[C@H](C)O2)[C@H](C)[C@@H](O[C@@H]2O[C@H](C)C[C@H](N(C)C)[C@H]2O)[C@](C)(O)C[C@@H](C)C(=O)[C@H](C)[C@@H](O)[C@]1(C)O [Erythromycin, erythromycin] | > 128 | 4.66 (≈ 6.35 µM) | > 128 | 32.7 (≈ 44.5 µM) | 42.8 | 27.3 | 24 | 42.8 | 29.3 | 18.7 | 42.83 | 24 | 27.33 | 18.66 | – | – | – | – | –
C[C@H]1c2cccc(O)c2C(=O)C2=C(O)[C@]3(O)C(=O)C(C(N)=O)=C(O)[C@@H](N(C)C)[C@@H]3[C@@H](O)[C@@H]21 [Doxycycline, doxycycline] | > 128 | 32.2 (≈ 72.4 µM) | 8 (≈ 18 µM) | 7 (≈ 15.8 µM) | 2.16 | 0.5 | 3.08 | 16 | 9.33 | 16 | 2.16 | – | 0.5 | 16 | – | – | – | – | MBIC alone, ATB ([10]; antibiotic alone, S. epidermidis biofilm inhibition, listed as Dox): 3.08 µg/mL and 3.41 µg/mL; MBIC alone, ATB [11, 21]: 0.5 µg/mL; MBEC Alone ATB ([12]; S. epidermidis, biofilm eradication, mean): 16 µg/mL

Source: PMC12339163, “Combining Plant Bioactives With Antibiotics for Enhanced Antibiofilm Activity Against Uropathogenic Staphylococcus spp. and Cytotoxicity Evaluation” (Advances in Pharmacological and Pharmaceutical Sciences, 2025)
